A word on the GI50: it is the concentration giving 50% growth inhibition. The term IC50 denotes the midpoint of a concentration-inhibition curve. The low end stands for greater potency, the high end for weaker potency.

The text below walks through data of ChEMBL document CHEMBL5584353, “Design, Synthesis, and Biological Evaluation of Potent EZH2/LSD1 Dual Inhibitors for Prostate Cancer” (J Med Chem, 2024).

The target in data set [1] is T1, Lysine-specific histone demethylase 1A (Homo sapiens, UniProt O60341). Description: Inhibition of LSD1 in human 22Rv1 cells assessed as upregulation of H3K9me2 expression at 10 uM incubated for 24 hrs by Western blotting analysis. It is filed as cell-based. (In western blotting, separated proteins are transferred to a membrane and probed.)
In data set [2] the test system is LNCaP. Description: Growth inhibition of human LNCaP cells incubated for 6 to 7 days by MTS assay. It is filed as functional. The note with it: time 6-7 day. In general terms: Tetrazolium dyes change colour on reduction, which living cells bring about.
Data set [3] relates to CWR22R. The data set is described as follows: Growth inhibition of human 22Rv1 cells incubated for 6 to 7 days by MTS assay. It is filed as functional. As to conditions: time 6-7 day.
Data set [4] deals with PC-3. The data set is described as follows: Growth inhibition of human PC-3 cells incubated for 6 to 7 days by MTS assay. It is filed as functional. The note with it: time 6-7 day.
For data set [5], the target named is T1, Lysine-specific histone demethylase 1A. Description: Inhibition of LSD1 in human LNCaP cells assessed as upregulation of H3K9me2 expression at 10 uM incubated for 24 hrs by Western blotting analysis. It is filed as cell-based.
Data set [6] is described as follows: Inhibition of LSD2 (unknown origin). Set-up: species or system Homo sapiens.
The target in data set [7] is T2, Amine oxidase [flavin-containing] A (Homo sapiens, UniProt P21397).
T2 sequence (P21397 whole entry): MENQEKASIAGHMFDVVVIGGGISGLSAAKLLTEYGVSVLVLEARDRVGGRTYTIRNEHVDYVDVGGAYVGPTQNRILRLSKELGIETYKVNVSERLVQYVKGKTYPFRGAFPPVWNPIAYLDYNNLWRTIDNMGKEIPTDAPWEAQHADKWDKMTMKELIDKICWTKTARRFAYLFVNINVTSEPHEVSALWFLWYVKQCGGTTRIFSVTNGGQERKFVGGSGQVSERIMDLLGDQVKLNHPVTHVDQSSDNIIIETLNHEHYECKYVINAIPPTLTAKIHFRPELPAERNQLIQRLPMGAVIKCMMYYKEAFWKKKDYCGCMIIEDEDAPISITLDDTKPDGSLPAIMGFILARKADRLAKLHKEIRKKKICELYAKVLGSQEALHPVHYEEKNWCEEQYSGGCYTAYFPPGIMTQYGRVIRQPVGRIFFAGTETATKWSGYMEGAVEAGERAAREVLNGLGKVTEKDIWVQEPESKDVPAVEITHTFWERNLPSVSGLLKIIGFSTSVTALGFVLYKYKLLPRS
The data set is described as follows: Inhibition of MAO-A (unknown origin).

The target of data set [8] is Histone-lysine N-methyltransferase EZH2 (Homo sapiens) (UniProt Q15910). The data set is described as follows: Inhibition of EZH2 in human LNCaP cells assessed as downregulation of H3K27me3 expression at 10 uM incubated for 24 hrs by Western blotting analysis. It is filed as cell-based.
Chain of Histone-lysine N-methyltransferase EZH2 (Homo sapiens) (Q15910 whole entry, looked up): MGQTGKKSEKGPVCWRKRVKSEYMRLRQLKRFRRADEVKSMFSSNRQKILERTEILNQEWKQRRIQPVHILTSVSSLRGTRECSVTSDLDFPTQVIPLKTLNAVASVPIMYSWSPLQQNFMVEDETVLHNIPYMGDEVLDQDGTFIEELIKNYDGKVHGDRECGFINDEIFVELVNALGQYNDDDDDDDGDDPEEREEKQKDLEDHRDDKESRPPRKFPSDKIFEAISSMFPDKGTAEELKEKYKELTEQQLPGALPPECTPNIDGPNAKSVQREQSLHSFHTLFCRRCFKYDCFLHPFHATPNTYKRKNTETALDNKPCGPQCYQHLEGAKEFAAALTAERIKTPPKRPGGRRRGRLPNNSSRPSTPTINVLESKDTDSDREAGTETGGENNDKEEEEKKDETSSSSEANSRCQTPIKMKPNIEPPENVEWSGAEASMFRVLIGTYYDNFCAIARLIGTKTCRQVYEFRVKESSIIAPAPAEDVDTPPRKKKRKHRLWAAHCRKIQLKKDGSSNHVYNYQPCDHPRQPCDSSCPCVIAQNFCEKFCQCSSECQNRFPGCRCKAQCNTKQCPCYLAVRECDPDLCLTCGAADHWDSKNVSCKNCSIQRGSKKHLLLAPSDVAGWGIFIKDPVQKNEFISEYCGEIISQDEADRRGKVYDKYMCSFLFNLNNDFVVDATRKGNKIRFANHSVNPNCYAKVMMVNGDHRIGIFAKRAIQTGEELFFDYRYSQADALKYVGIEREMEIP
Data set [9] has the same target. The data set is described as follows: Inhibition of EZH2 in human 22Rv1 cells assessed as downregulation of H3K27me3 expression at 10 uM incubated for 24 hrs by Western blotting analysis. Type of data set: cell-based.
In data set [10] the test system is CWR22R. Description: Induction of apoptosis in human 22Rv1 cells at 10 uM incubated for 5 days by Annexin V-FITC/PI staining based flow cytometric analysis (reference value: 8.97 %). Type of data set: functional. The note with it: time 5 day. A general note: A flow cytometer gives signals particle by particle.
Data set [11] relates to PC-3. Description: Synergistic growth inhibition of human PC-3 cells incubated for 6 to 7 days in presence of ORY1001 by MTS assay. Type of data set: functional. The note with it: time 6-7 day.
In data set [12] the test system is LNCaP. Description: Synergistic growth inhibition of human LNCaP cells incubated for 6 to 7 days in presence of TCP by MTS assay. Type of data set: functional. The note with it: time 6-7 day.
Data set [13] deals with CWR22R. The data set is described as follows: Synergistic growth inhibition of human 22Rv1 cells incubated for 6 to 7 days in presence of TCP by MTS assay. Type of data set: functional. As to conditions: time 6-7 day.
Data set [14] deals with CWR22R. Description: Synergistic growth inhibition of human 22Rv1 cells incubated for 6 to 7 days in presence of ORY1001 by MTS assay. The note with it: time 6-7 day. Type of data set: functional.
The subject of data set [15] is CWR22R. The data set is described as follows: Synergistic antitumor activity against human 22Rv1 cells xenografted in BALB/c mouse assessed as tumor growth inhibition at 65 mg/kg,ip administrated daily for 31 days in presence of TCP relative to control. The note with it: 22Rv1, 744 h, read-out: TGI.
Data set [16] in a line: Toxicity in BALB/c mouse xenografted with human 22Rv1 cells assessed as change in body weight at 65 mg/kg,ip administrated daily for 31 days. It is filed as organism-based, CWR22R. The note with it: in vivo, 744 h, time 31 day.
Data set [17] is described as follows: Toxicity in BALB/c mouse xenografted with human 22Rv1 cells assessed as change in body weight at 65 mg/kg,ip administrated daily for 31 days in presence of TCP. Type of data set: organism-based, CWR22R. As to conditions: in vivo, 744 h, time 31 day.
The test system of data set [18] is LNCaP. The data set is described as follows: Synergistic growth inhibition of human LNCaP cells incubated for 6 to 7 days in presence of ORY1001 by MTS assay. It is filed as functional. As to conditions: time 6-7 day.
For data set [19], the system named is PC-3. Description: Synergistic growth inhibition of human PC-3 cells incubated for 6 to 7 days in presence of TCP by MTS assay. The note with it: time 6-7 day. It is filed as functional.

Active and inactive are the calls of the source. The calls are words filed in the database; no cut-off is given here.

On to `CCN(c1cc(-c2ccc([C@@H]3C[C@H]3NC(=O)C(C)(C)C)cc2)cc(C(=O)NCc2c(C)cc(C)[nH]c2=O)c1C)C1CCOCC1` (racemic), for which the inhibition entry in data set [1] and in data set [5] was “inactive” each time. In addition, the GI50 was found to be 4.42 µM in the data set on LNCaP [2], 13.3 µM in the data set on CWR22R [3] and 7.96 µM in the data set on PC-3 [4].

As for `CCN(c1cc(-c2ccc([C@@H]3C[C@H]3NCC3CCOCC3)cc2)cc(C(=O)NCc2c(C)cc(C)[nH]c2=O)c1C)C1CCOCC1` (racemic), the 50% growth inhibitory concentration (GI50) in the data set on LNCaP [2] was 2.64 µM; in the data set on CWR22R [3], 4.03 µM; in the data set on PC-3 [4] it was 9.23 µM. Also, the IC50 was found to be 43.7 µM in data set [6] and 2.05 µM in [7].

`CCN(c1cc(-c2ccc([C@@H]3C[C@H]3NC(=O)OC(C)(C)C)cc2)cc(C(=O)NCc2c(C)c(Br)c(C)[nH]c2=O)c1C)C1CCOCC1` (racemic): the inhibition entry in [8] and in [9] was “inactive” in each case. Besides, the inhibition entry in data set [1] and in data set [5] was “Active” throughout. Moreover, the results for the GI50 in the data set on LNCaP [2], in the data set on CWR22R [3] and in the data set with PC-3 [4] were 24.1 µM, greater than 30 µM and 5.08 µM, respectively.

Consider `NC1CCC(N[C@@H]2C[C@H]2c2ccccc2)CC1` (stereo partly specified), for which the GI50 in the data set with LNCaP [2], with CWR22R [3] and in the data set with PC-3 [4] was greater than 30 µM throughout. The results for the IC50 in data set [6] and in [7] were 24.5 µM and 0.51 µM, respectively. This molecule also gave an Activity in the data set with CWR22R [10] of 11.56%.

As for `CCN(c1cc(-c2ccc(CN3CCOCC3)cc2)cc(C(=O)NCc2c(C)cc(C)[nH]c2=O)c1C)C1CCOCC1` [TAZEMETOSTAT], the GI50 in the data set on PC-3 [11] is greater than 30 µM; in the data set with LNCaP [2], 19.5 µM; in the data set on LNCaP [12] it was 13 µM; with CWR22R [13], greater than 30 µM; with CWR22R [14], greater than 30 µM; in the data set with CWR22R [3] it was 51.9 µM. Besides, the GI50 is greater than 30 µM in the data set on PC-3 [4], 12 µM with LNCaP [18] and greater than 30 µM with PC-3 [19]. Further, the inhibition in vivo at 65 mg/kg in the data set on CWR22R [15] is 28.8%. For the same molecule, the figures for the Activity entry (in [16]; in the data set on CWR22R [10]; in [17]) were “Non-Toxic”, 17.88% and “Non-Toxic”, respectively.
